Reference: ChEMBL document CHEMBL1240307, “A functional genomics approach to the mode of action of apratoxin A” (Nat Chem Biol, 2006)
The source made the active and inactive calls. The calls are words filed in the database; no cut-off is given here.

How the values were obtained:
Danio rerio [1] = species: Danio rerio; experiment: Inhibition of FGFR-mediated mkp3 mRNA expression in Zebrafish embryo tailbud region at 40 uM by in situ hybridization analysis
Danio rerio [2] = species: Danio rerio; experiment: Inhibition of FGFR-mediated mkp3 mRNA expression in Zebrafish dorsal forebrain at 40 uM by in situ hybridization analysis; type: tissue-based
Danio rerio [3] = species: Danio rerio; experiment: Inhibition of FGFR-mediated fin development in Zebrafish embryo at 40 uM by in situ hybridization method at 48-60 hrs post fertilization stage
Danio rerio [4] = species: Danio rerio; experiment: Inhibition of FGFR-mediated distal pectoral fin development in Zebrafish embryo at 700 nM by in situ hybridization method at 48-60 hrs post fertilization stage
Danio rerio [5] = species: Danio rerio; experiment: Inhibition of FGFR-mediated mkp3 mRNA expression in Zebrafish embryo mid-hind brain boundary at 40 uM by in situ hybridization analysis

Q: What does the source list for `Cc1c[nH]c(/C=C2\C(=O)Nc3ccccc32)c1CCC(=O)O`?
A: inhibition (Danio rerio [1]): Active; inhibition (Danio rerio [2]): Active; inhibition (Danio rerio [3]): 76%; inhibition (Danio rerio [4]): 72%; inhibition (Danio rerio [5]): Active
